Reference: patent publication US20220186210A1, “METHOD FOR I[…]” (priority 2019, published 2022)

Legend:
[1] = tested on: HeLa cells with PSMB5 point mutations; assay: Pooled ssODN point-mutation validation, Bortezomib resistant colonies (MTT viability); format: cell-based; details: bortezomib 8 ng/ml, 72 hour, FIG. 9D
Procedure: For the validation of critical mutations of PSMB5 and PLK1, sgRNAs were designed near the mutation site, and each 119 nt ssODN donor encoded one amino acid substitution for a validated residue. All sgRNAs (sgRNA sequences for the validation of critical mutations) and ssODN donor sequences (ssODN donors encoded one amino acid substitution for a validated residue) are listed in Table 2 as follows.
HeLa cells were transfected with 1 μg of sgRNA and 2 μg of the ssODN donor in six-well plates. Fourteen days after transfection, 1.5×10^5 cells were seeded in six-well plates 24 hour before drug selection. […] The genomes of drug-resistant cells were extracted using the TIANamp Genomic DNA Kit (TIANGEN).
(§1) Because missense point mutations were the predominant formats conferring drug resistance for both PSMB5 and PLK1, we decided to employ ssODN-mediated method^(24) to create specific point mutations instead of deletions for validation. We selected nine amino acid residues (R78, T80, V90, M104, A108, D110, C111, C122 and G242) in PSMB5, among which D110 and C111 were included as controls. To choose a proper amino acid for point mutation, the mutant types from screening results or previous reports were preferential choices. […] It remains to be determined how V90 mediates drug sensitivity and whether V90 alteration changes the structure around Bortezomib binding pocket.

[2] = tested on: HeLa cell clones with PSMB5 point mutations; assay: Cell viability assay of single clones with PSMB5 point mutations; format: cell-based; details: single clones with PSMB5 R78N, V9OL, A108T, C122F, G242D; FIG. 9E
Procedure: Cells were seeded in 96-well plates 24 hour before drug or toxin treatment (5,000 cells for diphtheria toxin (DT) and 3,000 cells for bortezomib), and different concentrations of bortezomib or DT were added. Cells were incubated at 37° C. for 48 hour (DT) or 72 hour (bortezomib) before the addition of 1 mg/ml of MTT (3-[4,5 -dimethylthiazol-2-yl]-2,5 -diphenyltetrazolium bromide). Spectrophotometer readings at 570 nm were collected using BioTek Cytation5 (BioTek Instruments).
as §1, with “choices. For the rest, we made all the substitution to alanine (Table 2).” for “choices.”

`CC(C)C[C@H](NC(=O)[C@H](Cc1ccccc1)NC(=O)c1cnccn1)B(O)O` [Bortezomib] was tested, and the Bortezomib resistant colonies ([1]; PSMB5 control mutations D110A and C111A) was “failed to produce Bortezomib resistant colonies”, the Bortezomib resistant colonies ([1]; PSMB5 mutations R78N, T80A, V90A, M104A, A108T, C122F, G242D) was “produced variable number of Bortezomib resistant colonies” and the “cell susceptibility to Bortezomib” value [2] was “conferred Bortezomib resistance”.
